Columns and labels:
Format in all cases: in vivo
[1] = tested on: green peach aphid (Myzus persicae); assay: Myzus test (cabbage leaf dip); settings: activity found; for LC50 after 6 days: Table B (Example B)
Description: (§1) The expected activity for a given combination of two active compounds can be calculated as follows (cf. Carpenter, C. S., “Mammalian Toxicity of 1-naphthyl-N-methylcarbamate [Sevin Insecticide]”, Agricultural and Food Chemistry, Vol. 9, No. 1, pages 30–39, 1961):
(§2) If • Pa is the proportion of active compound A in the mixture, • Pb is the proportion of active compound B in the mixture, • LC50 (or 95)a is the concentration at which 50% (or 95%) of the animals treated with active compound A are killed and • LC50 (or 95)b is the concentration at which 50% (or 95%) of the animals treated with active compound B are killed,
(§3) If the calculated LC50 (or 95) exceeds the value actually obtained and is higher than the confidence interval, the activity of the combination is superadditive, i.e. a synergistic effect exists.
(§4) To produce a suitable preparation of active compound, 1 part by weight of active compound is mixed with the stated amounts of solvent and emulsifier, and the concentrate is diluted with emulsifier-containing water to the desired concentration.
Cabbage leaves (Brassica oleracea), which are heavily infested by the green peach aphid (Myzus persicae) are treated by being dipped into the preparation of active compound of the desired concentration.
After the desired period of time, the killed in % is determined. 100% means that all aphids have been killed. The determined kill rates are inserted into Carpenter's formula.
After the desired period of time, the killed in % is determined. 100% means that all aphids have been killed; 0% means that none of the aphids have been killed. The determined kill rates are inserted into Carpenter's formula.

[2] = tested on: caterpillars of the armyworm (Spodoptera frugiperda); assay: Spodoptera frugiperda test (cabbage leaf dip); settings: activity found; for LC95 after 3 days: Table E (Example E)
Description: as §1, §2, §3, §4
Cabbage leaves (Brassica oleracea) are treated by being dipped into the preparation of active compound of the desired concentration and are populated with caterpillars of the armyworm (Spodoptera frugiperda) while the leaves are still moist.
(§5) After the desired period of time, the kill in % is determined. 100% means that all caterpillars have been killed; 0% means that none of the caterpillars have been killed. The determined kill rates are inserted in Carpenter's formula.

[3] = tested on: Heliothis armigera caterpillars; assay: Heliothis armigera test (soya bean shoot dip); settings: activity found
Description: as §1, §2, §3, §4
Soya bean shoots (glycine max) are treated by being dipped into the preparation of active compound of the desired concentration and are populated with Heliothis armigera caterpillars while the leaves are still moist.
After the desired period of time, the kill in % is determined. 100% means that all caterpillars have been killed; 0% means that none of the caterpillars have been killed. The determined kill rates are inserted into Carpenter's formula (see preceding page).
After the desired period of time, the kill in % is determined. 100% means that all caterpillars have been killed; 0% means that none of the caterpillars have been killed. The determined kill rates are inserted into Carpenter's formula.

[4] = tested on: caterpillars of the diamondback moths (Plutella xylostella, sensitive strain); assay: Plutella test, sensitive strain (cabbage leaf dip); settings: activity found
Description: as §1, §2, §3, §4
Cabbage leaves (Brassica oleracea) are treated by being dipped into the preparation of active compound of the desired concentration and are populated with caterpillars of the diamondback moths (Plutella xylostella, sensitive strain) while the leaves are still moist.
as §5
(§6) To produce a suitable preparation of active compound, 1 part by weight of active compound is mixed with the stated amounts of solvent emulsifier, and the concentrate is diluted with emulsifier-containing water to the desired concentration.

[5] = tested on: caterpillars of the diamondback moths (Plutella xylostella, resistant strain); assay: Plutella test, resistant strain (cabbage leaf dip); settings: Table M (Example M); activity found
Description: as §1, §2, §3
To produce a suitable preparation of active compound, 1 part by weight of active compound is mixed with the stated amounts of solvent and emulsifier, and the concentrate is diluted with emulsifier-containing water to the desired concentration. […]
After the desired period of time, the kill in % is determined. […] The determined kill rates are inserted in Carpenter's formula.

[6] = tested on: larvae of the mustard beetle (Phaedon cochleariae); assay: Phaedon larvae test (cabbage leaf dip); settings: activity found; for LC50 after 6 days: Table D (Example D)
Description: as §1, §2, §3, §4
Cabbage leaves (Brassica oleracea) are treated by being dipped into the preparation of active compound of the desired concentration and are populated with larvae of the mustard beetle (Phaedon cochleariae) while the leaves are still moist.
After the desired period of time, the kill in % is determined. 100% means that all beetle larvae have been killed; 0% means that none of the beetle larvae have been killed. The determined kill rates are inserted in Carpenter's formula.
as §6

[7] = tested on: cotton aphid (Aphis gossypii); assay: Aphis gossypii test (cotton leaf dip); settings: Table O (Example O); activity found
Description: as §1, §2, §3, §4
Cotton leaves (Gossypium hirsutum), which are heavily infested by the cotton aphid (Aphis gossypii) are treated by being dipped into the preparation of active compound of the desired concentration.
After the desired period of time, the killed in % is determined. […] The determined kill rates are inserted into Carpenter's formula.

| Compound | LC95 after 1 day ([1]; Table H (Example H)) [ppm] | LC50 after 6 days ([2]; Table I (Example I)) [ppm] | LC50 after 6 days ([3]; Table A (Example A)) [ppm] | LC50 after 6 days ([3]; Table F (Example F)) [ppm] | LC50 after 6 days ([3]; Table J (Example J)) [ppm] | LC50 after 6 days [1] [ppm] | LC95 after 1 day ([1]; Table P (Example P)) [ppm] | LC95 after 6 days ([4]; Table C (Example C)) [ppm] | LC95 after 6 days ([4]; Table L (Example L)) [ppm] | LC95 after 6 days ([4]; Table R (Example R)) [ppm] | LC50 after 6 days [5] [ppm] | LC50 after 6 days [6] [ppm] | LC95 after 6 days ([6]; Table G (Example G)) [ppm] | LC95 after 6 days ([6]; Table K (Example K)) [ppm] | LC95 after 6 days ([6]; Table Q (Example Q)) [ppm] | LC95 after 3 days [2] [ppm] | LC50 after 6 days ([2]; Table N (Example N)) [ppm] | LC95 after 6 days [7] [ppm] |
| --- | --- | --- | --- | --- | --- | --- | --- | --- | --- | --- | --- | --- | --- | --- | --- | --- | --- | --- |
| CNC(=O)Oc1cc(C)c(SC)c(C)c1 [methiocarb] | 75.000 | 51.649 |  |  |  |  |  |  |  |  |  |  |  |  |  |  |  |  |
| CN/C(=N\[N+](=O)[O-])NCc1cnc(Cl)s1 [clothianidin] | 5.988 | 2.450 | 0.997 | 15.0 | 3.527 | 1.013 | 1.303 | 42.493 | 9.045 | 28.46 | 27.271 | 6.708 | 11.234 | 17.504 | 7.690 | 6.099 | 0.178 | 4.954 |
| emamectin benzoate |  |  |  |  | 0.007 |  |  |  | 0.0009 |  | 0.0012 |  |  | 0.072 |  |  | 0.003 |  |
| CC[C@H](C)[C@H]1O[C@]2(C=C[C@@H]1C)C[C@@H]1C[C@@H](C/C=C(\C)[C@@H](O[C@H]3C[C@H](OC)[C@@H](O[C@H]4C[C@H](OC)[C@@H](O)[C@H](C)O4)[C@H](C)O3)[C@@H](C)/C=C/C=C3\CO[C@@H]4[C@H](O)C(C)=C[C@@H](C(=O)O1)[C@]34O)O2 [avermectin] |  |  |  | 0.094 |  |  |  |  |  |  |  |  | 1.431 |  |  |  |  |  |
| CC1(C)[C@H](C(=O)O[C@H](C#N)c2cccc(Oc3ccccc3)c2)[C@@H]1/C=C(\Cl)C(F)(F)F (racemic) [lambda-cyhalothrin] |  |  |  |  |  |  | 11.234 |  |  | 0.09 |  |  |  |  | 11.234 |  |  | 10.545 |
| CC1(C)C(C=C(Cl)Cl)C1C(=O)OC(C#N)c1ccc(F)c(Oc2ccccc2)c1 (stereo not drawn) [β-cyfluthrin] |  |  | 0.159 |  |  | 2.583 |  | 0.699 |  |  |  | 0.646 |  |  |  | 1.113 |  |  |
